Data as given in article PMC5776081, “The Stoichiometric Interaction of the Hsp90-Sgt1-Rar1 Complex by CD and SRCD Spectroscopy” (Frontiers in Molecular Biosciences, 2018).

Biological target: T1, Rar1 (Arabidopsis thaliana, UniProt Q9SE33)
T1 sequence (Q9SE33 1-226): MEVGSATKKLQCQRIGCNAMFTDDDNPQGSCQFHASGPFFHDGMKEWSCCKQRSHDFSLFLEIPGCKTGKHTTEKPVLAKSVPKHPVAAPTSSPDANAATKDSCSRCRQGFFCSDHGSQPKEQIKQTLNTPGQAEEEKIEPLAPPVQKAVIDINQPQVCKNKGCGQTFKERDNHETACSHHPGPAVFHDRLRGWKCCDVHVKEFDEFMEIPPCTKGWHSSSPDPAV
Assay: near-UV CD titration, non-linear fit at […] nm
Settings: 4 °C; 1:1 site; authors call it weak non-specific binding; apparent Kd

Kd: 2000 µM
Structure (SMILES): Nc1ncnc2c1ncn2[C@@H]1O[C@H](COP(=O)(O)OP(=O)(O)O)[C@@H](O)[C@H]1O [ADP]
